Residue numbers refer to the chain shown, from its start.

This note sets out measurements from doi:10.1101/2025.05.29.656781v1 (biorxiv, 2025).

In test [1] the target is T1, KV4.3/KChIP3 (Homo sapiens, UniProt Q9Y2W7).
T1 sequence (Q9Y2W7 1-256): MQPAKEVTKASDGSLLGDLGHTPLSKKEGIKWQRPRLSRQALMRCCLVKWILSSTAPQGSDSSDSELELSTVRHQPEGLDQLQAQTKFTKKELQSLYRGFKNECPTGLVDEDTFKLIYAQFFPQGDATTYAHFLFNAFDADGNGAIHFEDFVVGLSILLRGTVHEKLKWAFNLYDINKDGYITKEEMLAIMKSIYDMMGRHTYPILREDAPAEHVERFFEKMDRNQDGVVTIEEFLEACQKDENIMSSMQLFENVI
T1 sequence (Q9UK17 1-655 partner): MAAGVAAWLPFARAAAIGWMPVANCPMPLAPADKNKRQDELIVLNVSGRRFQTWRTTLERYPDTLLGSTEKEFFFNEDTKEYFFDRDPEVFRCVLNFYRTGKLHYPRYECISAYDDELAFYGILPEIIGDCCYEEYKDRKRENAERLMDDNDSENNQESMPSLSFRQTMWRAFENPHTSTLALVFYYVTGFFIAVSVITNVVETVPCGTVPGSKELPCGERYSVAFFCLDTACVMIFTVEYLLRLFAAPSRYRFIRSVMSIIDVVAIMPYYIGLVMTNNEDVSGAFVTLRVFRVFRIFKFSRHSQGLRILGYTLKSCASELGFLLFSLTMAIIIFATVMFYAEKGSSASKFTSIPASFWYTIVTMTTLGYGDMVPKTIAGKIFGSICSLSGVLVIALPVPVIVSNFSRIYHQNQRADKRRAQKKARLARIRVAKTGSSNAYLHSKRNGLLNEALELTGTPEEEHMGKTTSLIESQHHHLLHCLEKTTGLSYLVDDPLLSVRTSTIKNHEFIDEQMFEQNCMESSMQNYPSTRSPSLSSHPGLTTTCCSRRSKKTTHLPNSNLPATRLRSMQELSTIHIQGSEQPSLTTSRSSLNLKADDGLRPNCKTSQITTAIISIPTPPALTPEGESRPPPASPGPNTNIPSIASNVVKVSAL
Briefly: whole-cell patch clamp, per cent block. It is filed as cell-based. The conditions noted are these: read-out: % inhibition at 30 nM.

Test [2] concerns the target T2, KV4.3/KChIP3 (Homo sapiens, UniProt Q9Y2W7, K166A).
T2 sequence (Q9Y2W7 1-256 K166A): T1 sequence (Q9Y2W7 1-256) with K166A
T2 sequence (Q9UK17 1-655 partner): T1 sequence (Q9UK17 1-655 partner)
Nature of the test: whole-cell patch clamp, per cent block. The test is classed as cell-based. The conditions noted are these: read-out: % inhibition at 30 nM. (In general: In patch-clamp work, channel activity is measured electrically.)

Test [3] has as its target T1, KV4.3/KChIP3. Nature of the test: whole-cell patch clamp, peak current at +[…] mV. It is filed as cell-based.
In a further test the target is T3, KChIP3 (Homo sapiens, UniProt Q9Y2W7).
T3 sequence (Q9Y2W7 1-256): T1 sequence (Q9Y2W7 1-256)
Nature of the test: tryptophan fluorescence quenching. The test is classed as binding.

Test [4] concerns the target T4, KV4.3/KChIP3 (Homo sapiens, UniProt Q9Y2W7, Y118A).
T4 sequence (Q9Y2W7 1-256 Y118A): T1 sequence (Q9Y2W7 1-256) with Y118A
T4 sequence (Q9UK17 1-655 partner): T1 sequence (Q9UK17 1-655 partner)
Briefly: whole-cell patch clamp, per cent block. The test is classed as cell-based. The conditions noted are these: read-out: % inhibition at 30 nM.

The target of test [5] is T5, KV4.3/KChIP3 (Homo sapiens, UniProt Q9Y2W7, Y130A).
T5 sequence (Q9Y2W7 1-256 Y130A): T1 sequence (Q9Y2W7 1-256) with Y130A
T5 sequence (Q9UK17 1-655 partner): T1 sequence (Q9UK17 1-655 partner)
Briefly: whole-cell patch clamp, per cent block. It is filed as cell-based. The conditions noted are these: read-out: % inhibition at 30 nM.

What is called inhibition is the relative decrease from the control value, in per cent. One may read the IC50 as the concentration that gives 50% inhibition. Read a low IC50 as greater potency. As a reminder, the Kd is the constant that tells how readily two partners part at equilibrium. Read a high Kd as a looser complex. Turning to `O=C(Cc1cccc(-c2ccccc2)c1)Nc1cc(Cl)ccc1C(=O)O` [compound 1, 2-(2-([1,1’-biphenyl]-3-yl)acetamido)-4-chlorobenzoic acid], the inhibition at 0.03 µM on KV4.3/KChIP3 [1] amounted to 23.2 ± 2.7%; on KV4.3/KChIP3 [2], 9 ± 2.5%; at KV4.3/KChIP3 [4], 17 ± 3.6%; on KV4.3/KChIP3 [5], 9.7 ± 2.5%. At KV4.3/KChIP3 [3], this compound yielded an IC50 of 30 nM. The compound further yielded a Kd on KChIP3 of 230 ± 20 nM.
